Results taken from patent US20050009772A1, “Methods and compositions for the treatment of glaucoma and other retinal diseases” (The Regents of the University of California, priority 2003, published 2005).
“Also recorded” adds a separate entry of the source.

Tests used:
HSP72 [1] = assay: Quantitative immunohistochemical analysis of HSP72 in the RGCL after 1 week of IOP elevation (Experiment 3); assay type: in vivo, rat; conditions: quercetin = co-administered with GGA
Protocol: (§1) TdT-mediated biotin-dUTP nick end labeling (TUNEL) and immunohistochemical analysis for HSP72 and HSC70 were performed.
(§2) Animals were deeply anesthetized with intramuscular injections of 0.8 ml/kg of a cocktail of 5 ml ketamine (100 mg/ml), 2.5 ml xylazine (20 mg/ml), 1.0 ml acepromazine (10 mg/ml), and 1.5 ml normal saline. Then they were transcardially perfused with 4% paraformaldehyde in 0.1 M phosphate buffer. The enucleated eyeballs were immersed in fixative for 1 hour, bisected and post-fixed overnight. The eyes were embedded in paraffin and sectioned at a four-μm thickness along the vertical meridian through the optic nerve head. After deparaffinization and hydration, a species-specific Vectastain ABC kit (Vector Laboratories, Inc., Burlingame, Calif.) was chosen to match the species of primary antibody and the manufacturer's procedures were followed. The tissue sections were incubated with blocking serum solution in PBS for 1 hour. This was followed by incubation with primary antibody at 4° C overnight. The antibodies were mouse monoclonal antibody against HSP72 (1:500; StressGen Biotechnologies Corp., Victoria, British Columbia, Canada), goat polyclonal antibody against HSP72 (1:1000; Santa Cruz Biotechnology, Inc., Santa Cruz, Calif.) or rat monoclonal antibody against HSC70 (1:200; StressGen). Antigen-antibody complexes were detected by an avidin-biotin-peroxidase technique (Vectastain ABC Kit; Vector Laboratories). Diaminobenzidine (DAB) was used to produce a brown color in the target tissue and the slides were permanently mounted. As a negative control, alternate retinal section was incubated with blocking solution by replacing the primary antibody or with anti-rabbit secondary antibody by replacing the original secondary antibody.
Immunohistochemical staining was analyzed quantitatively with a computer-assisted image processing unit (Image-Pro Plus software, Media Cybernetics, Silver Spring, Md.) and the “count-measure” function. Images of immuno-stained sections were captured with a digital camera (Cool snap, RS Photometric, Tucson, Ariz.) attached to the microscope (Axio plan, Carl Zeiss, Oberkochen, Germany) at 630× magnification under oil immersion. The system was calibrated according to the supplier's manual before the analysis. For each digital image, all individual cells in the RGCL were marked by a masked examiner and the optical density of each cell was measured. The relative intensities of cells in the RGCL were measured and averaged (±SEM) to yield a single value representing one retina.

HSP72 [2] = assay: Immunohistochemical staining for HSP72 on retinal sections after GGA administration (Experiment 1); assay type: in vivo, rat
Protocol: Three experiments are summarized here, and details are provided in the subsequent sections. […] For Western blotting, twelve rats were equally divided into 6 groups. […] Enriched RGC fraction was harvested from 2 retinas of each group and used for Western blot analysis. The same experiment for isolation of RGCs and Western blotting was repeated with the other 2 retinas-from each group.
as §2

HSP72 [3] = assay: Western blot for HSP72 in enriched RGC fraction after systemic administration of GGA (Experiment 1); assay type: in vivo, rat; conditions: GGA 200 mg/kg daily i.p.
Protocol: Experiment 1 was performed to evaluate the expression of HSP72 and HSC70 in RGCs after systemic administration of GGA with Western blot analysis and immunohistochemistry. For Western blotting, twelve rats were equally divided into 6 groups. Three groups of animals were given intraperitoneal injections of GGA 200 mg/kg daily and were euthanized after 1-, 3- or 7 days of administration of GGA. Three control groups were intraperitoneally administered 1) saline-vehicle daily for 7 days; 2) GGA with 4 mg/kg of quercetin (Sigma, St. Louis, Mo.) daily for 7 days; and 3) untreated animals. Enriched RGC fraction was harvested from 2 retinas of each group and used for Western blot analysis. The same experiment for isolation of RGCs and Western blotting was repeated with the other 2 retinas-from each group.
A solution of 80 mg/mL GGA was prepared in saline (Balanced salt solution; Alcon Laboratories, Inc., Fort Worth, Tex.) and emulsified for one hour in an ultrasonic generator (Branson Ultrasonic Corp., Danbury, Conn.) immediately before administration. Intraperitoneal injections of GGA were given at a dose of 200 mg/kg. Saline-vehicle was prepared and administered in the same fashion in vehicle-treated control groups.
A previously described method was modified to partially purify RGCs from other retinal cells in rat retinas.38 Briefly, two dissected rat retinas from each subgroup were washed in 2.5 ml of calcium- and magnesium-free phosphate buffered saline (PBS) at pH 7.4, and incubated in 1.25 ml of PBS containing 0.5 mg/ml trypsin and 0.01% deoxyribonuclease for 15 minutes at 37° C. This was followed by washing the retinas twice in 2.5 ml of minimal essential medium (MEM) containing 10% (vol/vol) fetal bovine serum. The retinas were subsequently washed in 2.5 ml of MEM twice and dissociated in 3 ml of MEM. The cell suspension was then mixed with 1.5 ml of 30% metrizamide (ICN Biomedicals, Inc., Aurora, Ohio) in MEM to a final concentration of 10 metrizamide. This mixture was then overlaid with 5% metrizamide in MEM, and the gradient was centrifuged at 4500 rpm (HB-4; Sorvall Instruments, Newtown, Conn.) for 25 minutes at 4° C. The cells in the 5% to 10% interface were collected. and washed in 25 ml of cold MEM. The washed cells were pelleted by centrifugation at 250×g for 10 minutes (Juan 3000C centrifuge, Winchester, Va.). The cells were then resuspended in 400 μl of MEM buffer, and the protein concentration in the cell suspension was measured with a bicinchoninic acid (BCA) protein assay kit (Pierce, Rockford, Ill.).
Western blot analysis was performed according to the procedure described by Towbin et al.39 Aliquots of 20 μg of protein from enriched RGCs were separated on a 12% SDS-polyacrylamide minigel (Bio-Rad, Hercules, Calif.) and transferred to the membrane (Immunobilon-P; Millipore Corporation, Bedford, Mass.). The membrane was blocked by incubation in 0.1% Tween-20 in 100 mM Tris-buffered saline containing 10% nonfat dried milk for 1 hour. The membranes were incubated with mouse monoclonal antibody against HSP72 (1:1000; StressGen Biotechnologies Corp., Victoria, British Columbia, Canada) or with rat monoclonal antibody against HSC70 (1:1000; StressGen) overnight and then biotinylated rabbit anti-mouse secondary antibody (1:500; Amersham Pharmacia Biotech, Inc., Piscataway, N.J.) or biotinylated goat anti-rat secondary antibody (1:500; Amersham Pharmacia) for 1 hour. This was followed by incubation with streptavidin-conjugated horseradish peroxidase (1:2000; Amersham Pharmacia) for 40 minutes. The immunoreactive bands were detected by chemiluminescence with an enhanced chemiluminescence Western blot reagent (Amersham Pharmacia).

HSC70 = assay: Quantitative immunohistochemical analysis of HSC70 in the RGCL after 1 week of IOP elevation (Experiment 3); assay type: in vivo, rat; conditions: among all the groups, 1 week after laser
Protocol: as §1
Animals were deeply anesthetized with intramuscular injections of 0.8 ml/kg of a cocktail of 5 ml ketamine (100 mg/ml), 2.5 ml xylazine (20 mg/ml), 1.0 ml acepromazine (10 mg/ml), and 1.5 ml normal saline. Then they were transcardially perfused with 4% paraformaldehyde in 0.1 M phosphate buffer. The enucleated eyeballs were immersed in fixative for 1 hour, bisected and post-fixed overnight. The eyes were embedded in paraffin and sectioned at a four-μm thickness along the vertical meridian through the optic nerve head. […] Antigen-antibody complexes were detected by an avidin-biotin-peroxidase technique (Vectastain ABC Kit; Vector Laboratories). […]
Immunohistochemical staining was analyzed quantitatively with a computer-assisted image processing unit (Image-Pro Plus software, Media Cybernetics, Silver Spring, Md.) and the “count-measure” function. […] For each digital image, all individual cells in the RGCL were marked by a masked examiner and the optical density of each cell was measured. The relative intensities of cells in the RGCL were measured and averaged (±SEM) to yield a single value representing one retina.

[4] = system: cells in the retinal ganglion cell layer (RGCL); assay: Counting of cresyl violet-stained cells in the RGCL in rat glaucoma model (Experiment 2); assay type: in vivo
Protocol: (§3) GGA was then given twice a week at the same dose until euthanasia. Sustained elevation of intraocular pressure (IOP) was maintained by performing trabecular laser photocoagulation three weeks after the first photocoagulation. […] IOP and body weight were measured once a week. After 5 weeks of IOP elevation, the number of retrogradely labeled RGCs with dextran tetramethylrhodamine (DTMR) was counted (n=53). The grading of optic nerve injury and the counting of cresyl violet-stained cells in the retinal ganglion cell layer (RGCL) was also performed (n=54).
(§4) Rats were anesthetized with intramuscular injections of 0.8 ml/kg of the anesthetic cocktail described above. A previously published procedure was modified to produce chronic moderately elevated IOP unilaterally, while the untreated contralateral eye served as the comparative control.40 Animals were injected intracamerally with 10 μl of 35% India ink (Becton Dickinson, Cockeysville, Md.) in 0.01 M PBS after removing a similar volume of aqueous. At the end of the procedure, Tobrex ophthalmic ointment (tobramycin 0.3%; Alcon, Fort Worth, Tex.) was applied topically. Five days after intracameral injection of India ink, a dark band at the limbus was noted due to the aggregation of carbon particles in the trabecular meshwork.38 After anesthesia, approximately 200 laser burns were delivered ab externo to the pigmented trabecular band at laser settings of 200 μm diameter, 200 mW power and 0.2 seconds duration. Three weeks after the first laser treatment, another trabecular laser photocoagulation was performed without further injection of ink.
Corresponding loss of cells from the RGCL was evaluated by counting cells in the RGCL in cresyl violet-stained retinas. After collecting the optic nerves, enucleated eyeballs were postfixed in 10% neutral buffered formalin for 1 hour and washed in 0.1 M phosphate buffer (pH 7.4). The retinas were dissected and flat mounted on a slide, vitreal side up. Four radial cuts were made in the peripheral retinas. The specimens were dried overnight, stained with 1% cresyl violet, dehydrated, and covered with coverslips. Morphologically distinguishable glial cells and vascular endothelial cells were not counted. Cells with cytoplasm rich in Nissl substance and with irregular outlines were counted as neurons.43 The numbers of neurons in the RGCL in regions 1 mm (posterior), 2 mm (mid-peripheral) and 3 mm (peripheral) from the center of the optic nerve head were taken with an eye-piece reticule of a microscope at 400× magnification. The counting was performed by two investigators in a masked fashion and averaged.

optic nerve axons = assay: Grading of optic nerve injury in rat glaucoma model (Experiment 2); assay type: in vivo
Protocol: as §3, §4
To examine the effect on RGC axons, optic nerve injury was evaluated with an established method.41 After 5 weeks of IOP elevation, deeply anesthetized animals were perfused with a solution of 4% paraformaldehyde and 1% glutaraldehyde. Optic nerve segments […] behind the globe were dissected, washed, postfixed with 5% glutaraldehyde, dehydrated, and embedded. One μm-thick sections were cut and stained with 1% toluidine blue. Optic nerve cross sections were examined under light microscopy and assessed by three independent masked observers. A graded scale of optic nerve injury ranging from 1 (normal) to 5 (total degeneration) was used. Data obtained from three observers were averaged and presented as mean ±SEM.

## Geranylgeranylacetone [GGA]
HSP72 [1]; control (normal IOP) retinas vs vehicle-alone controls
  HSP72 expression (immunoreactive intensity) in the RGCL: increased expression of HSP72; also recorded: Increased immunoreactivity of HSP72
HSP72 [1]; retinas with IOP elevation, 1 week
  HSP72 expression (immunoreactive intensity) in the RGCL: apparently further increased
HSP72 [2]; GGA i.p. 7 days
  immunoreactivity of HSP72 in other retinal layers: No remarkable change
HSP72 [2]; GGA i.p. 7 days vs vehicle-treated
  immunoreactivity of HSP72 in cells in the RGCL (immunohistochemical staining): Increased immunoreactivity of HSP72
HSP72 [2]; oral daily dose of GGA for one week, assayed one week after last oral administration
  levels of HSP72 in RGCs (immunohistochemical staining): increased levels of HSP72
HSP72 [3]; 1 day
  immunoreactivity of HSP72 in RGCs (immunoblot): mild increase in immunoreactivity
HSP72 [3]; 3 days
  immunoreactivity of HSP72 in RGCs (immunoblot): increased HSP72 expression; also recorded: strong increase in immunoreactivity
HSP72 [3]; 7 days
  immunoreactivity of HSP72 in RGCs (immunoblot): increased HSP72 expression; also recorded: strong increase in immunoreactivity
HSC70
  expression of HSC70 in RGCL (immunoreactive intensity): no statistically significant difference; also recorded: No change in HSC70 immunoreactivity
[4]; 5 weeks of elevated IOP
  cells in the RGCL (cresyl violet): 2697±70 cells/mm2
  effect on loss of cells in the RGCL (in words): inhibited the loss of cells
[4]; contralateral control retinas
  cells in the RGCL (cresyl violet): 2644±59 cells/mm2
  effect on number of cells in the RGCL (in words): no significant effect
Optic nerve axons; 5 weeks of IOP elevation
  effect on optic nerve injury / axonal damage (in words): inhibited; also recorded: significantly ameliorated
Optic nerve axons; 5 weeks of sustained IOP elevation, scale 1 (normal) to 5 (total degeneration)
  optic nerve injury grade: 1.33±0.05
Optic nerve axons; contralateral control eyes
  optic nerve injury (in words): no statistically significant optic nerve injury
Optic nerve axons; contralateral control eyes, scale 1 to 5
  optic nerve injury grade: 1.11±0.02
